Activity calls are given as the source filed them.
Assays:
[1] = biological target: Peroxisome proliferator-activated receptor gamma/Nuclear receptor coactivator 2 (Homo sapiens, UniProt P37231); format: functional;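 note: agonist potency for raising coactivator recruitment to the receptor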
[2] = biological target: Peroxisome proliferator-activated receptor gamma/Nuclear receptor coactivator 1 (Homo sapiens, UniProt P37231); format: functional;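 note: agonist potency as compounds enhance coactivator SRC-1 recruitment to PPARgamma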
Sequence of Peroxisome proliferator-activated receptor gamma/Nuclear receptor coactivator 1 (P37231 whole entry): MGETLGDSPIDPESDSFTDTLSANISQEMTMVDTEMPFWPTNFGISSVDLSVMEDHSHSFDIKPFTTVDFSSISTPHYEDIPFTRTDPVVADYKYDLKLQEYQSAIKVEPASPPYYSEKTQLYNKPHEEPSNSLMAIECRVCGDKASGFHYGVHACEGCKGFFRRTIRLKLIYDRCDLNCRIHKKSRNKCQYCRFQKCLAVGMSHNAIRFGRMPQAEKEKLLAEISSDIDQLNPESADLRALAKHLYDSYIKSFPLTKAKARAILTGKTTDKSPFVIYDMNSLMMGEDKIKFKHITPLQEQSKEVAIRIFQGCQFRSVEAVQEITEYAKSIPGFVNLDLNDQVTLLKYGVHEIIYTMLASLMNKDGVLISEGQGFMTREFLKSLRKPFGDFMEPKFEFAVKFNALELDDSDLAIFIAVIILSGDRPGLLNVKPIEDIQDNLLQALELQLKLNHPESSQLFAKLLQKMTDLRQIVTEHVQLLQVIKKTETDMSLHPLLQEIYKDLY
Sequence of Peroxisome proliferator-activated receptor gamma/Nuclear receptor coactivator 1 (Q15788 whole entry, further chain): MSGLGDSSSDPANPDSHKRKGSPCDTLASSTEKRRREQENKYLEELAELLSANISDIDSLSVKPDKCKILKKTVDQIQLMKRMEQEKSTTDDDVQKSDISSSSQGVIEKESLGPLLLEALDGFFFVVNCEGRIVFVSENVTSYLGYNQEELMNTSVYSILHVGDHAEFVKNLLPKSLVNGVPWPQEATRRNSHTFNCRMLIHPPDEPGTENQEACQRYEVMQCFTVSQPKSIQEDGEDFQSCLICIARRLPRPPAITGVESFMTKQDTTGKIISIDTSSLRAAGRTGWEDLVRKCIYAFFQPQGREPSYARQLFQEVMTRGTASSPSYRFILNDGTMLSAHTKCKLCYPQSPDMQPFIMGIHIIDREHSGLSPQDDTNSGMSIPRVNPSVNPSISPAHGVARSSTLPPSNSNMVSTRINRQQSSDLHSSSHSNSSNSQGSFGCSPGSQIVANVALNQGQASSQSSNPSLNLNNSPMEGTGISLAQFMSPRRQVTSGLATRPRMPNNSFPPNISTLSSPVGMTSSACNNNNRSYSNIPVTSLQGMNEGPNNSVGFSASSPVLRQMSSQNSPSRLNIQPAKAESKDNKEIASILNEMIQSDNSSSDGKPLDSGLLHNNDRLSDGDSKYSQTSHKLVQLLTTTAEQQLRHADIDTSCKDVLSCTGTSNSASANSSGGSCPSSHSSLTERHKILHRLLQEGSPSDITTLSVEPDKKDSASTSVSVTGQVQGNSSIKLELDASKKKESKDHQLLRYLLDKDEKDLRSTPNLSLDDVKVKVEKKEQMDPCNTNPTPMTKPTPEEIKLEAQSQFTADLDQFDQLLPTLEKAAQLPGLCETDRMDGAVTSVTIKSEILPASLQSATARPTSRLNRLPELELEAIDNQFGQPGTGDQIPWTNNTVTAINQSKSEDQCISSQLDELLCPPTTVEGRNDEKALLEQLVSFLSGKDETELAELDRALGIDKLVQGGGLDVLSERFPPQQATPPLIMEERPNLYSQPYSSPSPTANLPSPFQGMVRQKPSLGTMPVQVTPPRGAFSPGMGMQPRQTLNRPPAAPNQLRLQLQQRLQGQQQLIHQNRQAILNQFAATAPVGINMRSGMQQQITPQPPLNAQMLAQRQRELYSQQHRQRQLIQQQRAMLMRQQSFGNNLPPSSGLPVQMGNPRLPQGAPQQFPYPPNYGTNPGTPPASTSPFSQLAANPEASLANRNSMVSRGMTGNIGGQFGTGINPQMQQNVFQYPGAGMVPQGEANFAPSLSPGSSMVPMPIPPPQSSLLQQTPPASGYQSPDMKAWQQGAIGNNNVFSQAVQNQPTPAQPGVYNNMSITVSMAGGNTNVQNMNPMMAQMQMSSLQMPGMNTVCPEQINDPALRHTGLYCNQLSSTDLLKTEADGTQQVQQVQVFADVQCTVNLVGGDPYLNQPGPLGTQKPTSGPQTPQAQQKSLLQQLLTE

[3] = biological target: Peroxisome proliferator-activated receptor gamma/Nuclear receptor corepressor 2 (Homo sapiens, UniProt P37231+Q9Y618); test: Counterscreen for NR2E3 inverse agonists: TR-FRET-based biochemical high throughput dose response assay to identify inverse agonists of the interaction between peroxisome proliferator-activated receptor gamma (PPARg) and nuclear receptor co-repressor 2 (NCOR2).; format: functional
[4] = biological target: Photoreceptor-specific nuclear receptor (Homo sapiens, UniProt Q9Y5X4); test: ligands suppressing NR2E3 nuclear receptor activity – biochemical, TR-FRET, dose response (AID 463256); format: functional
Sequence of Photoreceptor-specific nuclear receptor (Q9Y5X4 whole entry): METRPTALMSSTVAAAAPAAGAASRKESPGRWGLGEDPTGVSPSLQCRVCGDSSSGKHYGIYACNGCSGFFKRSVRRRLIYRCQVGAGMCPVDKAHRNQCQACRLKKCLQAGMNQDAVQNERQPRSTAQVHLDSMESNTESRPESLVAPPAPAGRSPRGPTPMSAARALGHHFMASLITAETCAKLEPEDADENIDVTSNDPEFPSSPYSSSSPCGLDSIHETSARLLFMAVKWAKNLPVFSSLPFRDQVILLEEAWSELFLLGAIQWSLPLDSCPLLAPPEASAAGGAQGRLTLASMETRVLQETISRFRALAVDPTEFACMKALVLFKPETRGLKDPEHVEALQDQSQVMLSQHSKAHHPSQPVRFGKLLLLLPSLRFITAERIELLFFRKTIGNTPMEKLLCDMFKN

[5] = biological target: Peroxisome proliferator-activated receptor gamma/Nuclear receptor coactivator 3 (Homo sapiens, UniProt P37231); format: functional;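 note: agonist potency for raising coactivator recruitment to the receptor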
[6] = viability loss in human Jurkat cells – cell-based, luminescence, cytotoxicity control for P. falciparum gametocyte viability project, dose response (AID 1117277); format: functional;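 note: potency reflects loss of cellular ATP meaning fewer viable cells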
[7] = viability inhibitors of stage V gametocytes – luminescence, dose response (AID 1117278); format: functional, cell-based;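 note: gametocytes exposed to compound for 24 hours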
[8] = biological target: Transthyretin (Homo sapiens, UniProt P02766); test: Luminescence-based cell-based high throughput dose response assay to identify activators of Transthyretin (TTR) transcription.; format: functional
[9] = biological target: T1, Polyadenylate-binding protein 1 (Homo sapiens, UniProt P11940); test: MLLE binding blockers, Cy5 peptide tracer – biochemical, fluorescence polarization, Cy5-PAM2 peptide, secondary, miRNA deadenylation inhibitor project, dose response (AID 602260); format: functional; details: read-out: IC50_Mean
T1 sequence (P11940 whole entry): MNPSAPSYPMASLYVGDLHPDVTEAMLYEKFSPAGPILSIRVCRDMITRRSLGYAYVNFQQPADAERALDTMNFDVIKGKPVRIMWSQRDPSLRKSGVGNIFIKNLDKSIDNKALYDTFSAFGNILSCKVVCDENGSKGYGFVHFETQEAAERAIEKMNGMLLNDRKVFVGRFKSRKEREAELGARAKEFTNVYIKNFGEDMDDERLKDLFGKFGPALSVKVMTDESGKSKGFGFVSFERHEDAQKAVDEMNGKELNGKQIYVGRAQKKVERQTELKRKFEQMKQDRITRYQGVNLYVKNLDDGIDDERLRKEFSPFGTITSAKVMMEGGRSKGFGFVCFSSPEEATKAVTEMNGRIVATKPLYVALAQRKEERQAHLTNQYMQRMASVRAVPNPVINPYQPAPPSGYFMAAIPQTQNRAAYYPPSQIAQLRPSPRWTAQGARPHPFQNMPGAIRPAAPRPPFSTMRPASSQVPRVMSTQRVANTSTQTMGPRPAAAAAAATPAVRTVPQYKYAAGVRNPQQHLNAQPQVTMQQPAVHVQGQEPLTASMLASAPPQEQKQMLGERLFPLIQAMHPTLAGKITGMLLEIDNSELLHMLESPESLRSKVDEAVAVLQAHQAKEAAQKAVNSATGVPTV

[10] = biological target: T2, Protein skinhead-1 (Caenorhabditis elegans, UniProt P34707); format: functional
T2 sequence (P34707 whole entry): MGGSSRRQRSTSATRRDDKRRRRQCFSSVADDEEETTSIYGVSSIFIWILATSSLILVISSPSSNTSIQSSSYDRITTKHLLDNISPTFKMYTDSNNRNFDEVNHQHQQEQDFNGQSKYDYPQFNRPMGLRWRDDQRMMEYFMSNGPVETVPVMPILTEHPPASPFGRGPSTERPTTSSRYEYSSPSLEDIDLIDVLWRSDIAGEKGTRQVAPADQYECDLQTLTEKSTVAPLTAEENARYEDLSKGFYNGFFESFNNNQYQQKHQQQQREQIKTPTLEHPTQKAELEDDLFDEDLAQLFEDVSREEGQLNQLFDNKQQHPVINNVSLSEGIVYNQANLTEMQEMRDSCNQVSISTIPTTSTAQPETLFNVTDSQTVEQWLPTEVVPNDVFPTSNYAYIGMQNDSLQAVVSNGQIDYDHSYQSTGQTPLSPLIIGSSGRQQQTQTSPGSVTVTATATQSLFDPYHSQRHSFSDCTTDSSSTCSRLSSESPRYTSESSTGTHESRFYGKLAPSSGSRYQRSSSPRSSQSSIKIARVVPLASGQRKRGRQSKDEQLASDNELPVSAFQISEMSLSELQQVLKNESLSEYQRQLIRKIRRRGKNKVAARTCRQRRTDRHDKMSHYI

[11] = biological target: Caspase-8 (Homo sapiens, UniProt Q14790); test: inhibitors of purified CASP8 protease – biochemical, Z-IETD-R110 fluorescence, cherry-picked samples, selectivity assay for caspase-6 inhibitor project, dose response (AID 743294)
Sequence of Caspase-8 (Q14790 217-374 limits assumed): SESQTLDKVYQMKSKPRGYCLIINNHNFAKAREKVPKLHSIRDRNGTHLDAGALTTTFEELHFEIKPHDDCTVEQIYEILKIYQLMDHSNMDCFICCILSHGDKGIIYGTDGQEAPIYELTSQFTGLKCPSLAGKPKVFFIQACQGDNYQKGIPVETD
Sequence of Caspase-8 (Q14790 385-479 limits assumed): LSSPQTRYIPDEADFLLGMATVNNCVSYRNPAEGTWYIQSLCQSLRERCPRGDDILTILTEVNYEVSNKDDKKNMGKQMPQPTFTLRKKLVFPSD

[12] = biological target: Caspase-7 (Homo sapiens, UniProt P55210); test: caspase-7 enzyme inhibition, selectivity check – biochemical, DEVD-R110 fluorescence, cherry-pick, selectivity assay for caspase-6 inhibitor project, dose response (AID 743295); format: functional
Sequence of Caspase-7 (P55210 24-198 limits assumed): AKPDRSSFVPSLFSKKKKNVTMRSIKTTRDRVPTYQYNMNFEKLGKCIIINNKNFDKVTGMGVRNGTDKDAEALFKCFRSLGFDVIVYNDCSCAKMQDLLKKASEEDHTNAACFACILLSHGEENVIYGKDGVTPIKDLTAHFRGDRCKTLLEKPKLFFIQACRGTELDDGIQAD
Sequence of Caspase-7 (P55210 207-303 limits assumed): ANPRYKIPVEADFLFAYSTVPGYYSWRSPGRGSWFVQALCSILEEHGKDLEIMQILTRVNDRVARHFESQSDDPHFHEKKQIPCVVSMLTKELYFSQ

[13] = biological target: Tyrosyl-DNA phosphodiesterase 2 (Homo sapiens, UniProt O95551); test: potency against TDP2 phosphodiesterase activity – biochemical, epi absorbance, IC50, dose response (AID 743297)
Sequence of Tyrosyl-DNA phosphodiesterase 2 (O95551 whole entry): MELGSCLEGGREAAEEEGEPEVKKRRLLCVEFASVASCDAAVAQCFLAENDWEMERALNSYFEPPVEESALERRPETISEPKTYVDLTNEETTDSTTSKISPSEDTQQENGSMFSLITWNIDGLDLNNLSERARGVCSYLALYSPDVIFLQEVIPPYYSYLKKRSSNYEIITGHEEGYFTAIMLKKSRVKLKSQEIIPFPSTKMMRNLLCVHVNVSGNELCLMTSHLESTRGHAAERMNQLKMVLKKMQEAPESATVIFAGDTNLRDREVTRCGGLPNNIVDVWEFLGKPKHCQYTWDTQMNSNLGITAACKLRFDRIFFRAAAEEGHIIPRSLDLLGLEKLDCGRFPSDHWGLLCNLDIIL

[14] = biological target: Caspase-9 (Homo sapiens, UniProt P55211); test: inhibitors of purified CASP9 protease – biochemical, fluorescence, plate reader, cherry-picked samples, selectivity assay for caspase-6 inhibitor project, dose response (AID 743293)
Sequence of Caspase-9 (P55211 1-315 limits assumed): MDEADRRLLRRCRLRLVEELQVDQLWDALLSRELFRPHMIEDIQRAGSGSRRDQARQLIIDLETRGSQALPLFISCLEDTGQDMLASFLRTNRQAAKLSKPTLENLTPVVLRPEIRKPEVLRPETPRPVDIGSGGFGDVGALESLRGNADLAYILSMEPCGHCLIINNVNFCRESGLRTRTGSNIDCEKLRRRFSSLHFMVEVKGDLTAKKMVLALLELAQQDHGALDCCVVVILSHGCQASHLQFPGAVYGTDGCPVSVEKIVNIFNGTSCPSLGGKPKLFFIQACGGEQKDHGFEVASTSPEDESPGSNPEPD
Sequence of Caspase-9 (P55211 331-416 limits assumed): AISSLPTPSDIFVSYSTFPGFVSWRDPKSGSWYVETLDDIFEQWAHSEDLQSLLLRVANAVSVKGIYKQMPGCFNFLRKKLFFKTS

[15] = biological target: T3, Caspase-3 (Homo sapiens, UniProt P42574); test: human caspase-3 protease activity blockade – biochemical, fluorescence, cherry-picked samples, selectivity assay for caspase-6 allosteric inhibitor project, dose response (AID 743291)
T3 sequence (P42574 whole entry): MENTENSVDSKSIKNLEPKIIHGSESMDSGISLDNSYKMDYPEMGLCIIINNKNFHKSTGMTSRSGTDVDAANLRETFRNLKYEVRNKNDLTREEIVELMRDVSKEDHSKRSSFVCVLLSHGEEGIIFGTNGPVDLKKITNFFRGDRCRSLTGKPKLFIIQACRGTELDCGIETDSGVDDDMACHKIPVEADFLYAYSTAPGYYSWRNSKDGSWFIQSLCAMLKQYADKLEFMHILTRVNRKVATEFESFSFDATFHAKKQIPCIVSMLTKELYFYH

[16] = biological target: Caspase-6 (Homo sapiens, UniProt P55212); test: inhibition of CASP6 peptide cleavage – biochemical, VEID-R110 fluorescence, cherry-pick, dose response (AID 720632)
Sequence of Caspase-6 (P55212 24-179 limits assumed): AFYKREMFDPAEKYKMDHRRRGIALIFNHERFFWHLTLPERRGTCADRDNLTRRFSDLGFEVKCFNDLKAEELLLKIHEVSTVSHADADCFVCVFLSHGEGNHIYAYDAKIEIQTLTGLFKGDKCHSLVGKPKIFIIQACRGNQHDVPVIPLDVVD
Sequence of Caspase-6 (P55212 194-293 limits assumed): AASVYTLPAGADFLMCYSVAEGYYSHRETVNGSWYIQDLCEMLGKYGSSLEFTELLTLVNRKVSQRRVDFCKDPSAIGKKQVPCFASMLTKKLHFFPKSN

[17] = biological target: T1, Polyadenylate-binding protein 1; test: MLLE domain peptide-binding blockers, IC50 – biochemical, fluorescence polarization, FITC-PAM2 peptide, dose response (AID 602259); format: functional; details: read-out: IC50_Mean
[18] = antimalarial activity against Dd2 parasites – SYBR Green fluorescence, erythrocytes, dry powder, set 2, dose response (AID 1159574); format: functional, cell-based
[19] = TB: CFU replicating Measured in Microorganism System Using Imaging - 7108-05_Inhibitor_Dose_DryPowder_Activity_Set2.; format: functional
[20] = IC50 of insulin release inhibition, rat insulinoma INS-1E line, 5 mM glucose, cell-based (AID 1117331); format: functional

Question: Which results are given for `Cc1cccc(NC(=O)c2sc3nc(-c4ccc(F)cc4)cn3c2C)n1`?
Answer: EC50 [1]: 12.3 µM (not active); EC50 [2]: 16.8 µM (not active); IC50 [3]: 1.18 µM (active); IC50 [4]: 1.17 µM (active); EC50 [5]: 22.5 µM (not active)

Question: Which IC50 [6] does the source give for `COc1cc(S(=O)(=O)NC2CCCCC2)c(C)cc1C` here?
Answer: > 83.3 µM (inactive)

Question: What about the IC50 [7] of the same molecule?
Answer: > 109 µM (inactive)

Question: Which EC50 [8] does the source give for `Cc1nn(C)c(C(=O)N2CCc3ccccc32)c1Br` here?
Answer: > 167 µM (inactive)

Question: Which results are given for `Cn1c(=O)c2c(-c3ccccc3)n(-c3ccc(N)cc3)cc2n(C)c1=O`?
Answer: IC50 [9]: > 66 µM (inactive); IC50 [10]: 73.6 µM (inactive); AC50 [11]: > 70 µM (inactive); AC50 [12]: 8.62 µM (active); IC50 [13]: > 128 µM (inactive); AC50 [14]: 69.8 µM (active); AC50 [15]: 19.2 µM (active); AC50 [16]: 1.07 µM (active); IC50 [17]: 38.4 µM (inactive)

Question: For `COc1ccc(S(=O)(=O)N(C)C[C@H]2OCc3ccccc3-c3c(n(C)c4ccccc34)C(=O)N([C@@H](C)CO)C[C@H]2C)cc1`, which AC50 [18] is on record?
Answer: 5.13 µM (active)

Question: Which AbsAC90 [19] does the source give for `Cn1c(NC(=O)c2ccccc2)nc2c(F)cccc21` here?
Answer: 160.65 µM

Question: For `CN1CCN2c3ccccc3Cc3ccccc3C2C1` (stereo not given) [MIANSERIN], which IC50 [20] is on record?
Answer: > 11.1 µM (inactive)

Reference: ChEMBL document CHEMBL1201862, “PubChem BioAssay data set” (2004)
